The assay relates to wheat rust fungi (Puccinia recondita). Briefly: Comparative Test Example: wheat rust foliar spray test. Type of assay: in vivo. The settings on record: wheat (cv; Shirogane), 500 ppm foliar spray, inoculated after 5 days. The method, then: The spores of wheat rust fungi (Puccinia recondita) were sprinkling-inoculated. After inoculation, the plants were placed under a dark and humid condition at 23° C. for 1 day and were then cultivated at 20° C. under lighting for 8 days and a lesion area was observed.

With `Cc1cc(C)n(-c2ccc(OCc3ccccc3-n3nnn(C)c3=O)c(Cl)c2)n1` [control compound, 1-{2-[2-chloro-4-(3,5-dimethyl-pyrazol-1-yl)-phenoxymethyl]-phenyl}-4-methyl-1,4-dihydrotetrazole-5-one], the “lesion area compared to the lesion area in untreated plants” value is on record as not below 70%.

The values above are taken from patent US9554576B2, “Tetrazolinone compounds and their use as pesticides” (SUMITOMO CHEMICAL COMPANY, LIMITED, priority 2012, dated 2017).
